Assay results as given in patent US10738028B2, “Spiro three-membered ring, spiro five-membered ring peptide deformylase inhibitor and use thereof in antibacteria and anti-tumor” (priority 2016, dated 2020).

How the values were obtained:
[1] = test system: methemoglobin in blood samples of three healthy volunteers; experiment: Toxicity on methemoglobin in vitro (whole blood with S9 and NADPH, absorbance at 630 nm); format: cell-based, human
Experimental: Because PDF inhibitors such as LBM415 and GSK1322322 can produce active species such as aromatic hydroxylamine and aromatic hydrazines in metabolic process, and cause human methemoglobinemia. To this end, continuous wavelength method was adopted in this invention to scan the absorption spectrum of blood samples in the wavelength range of 500 to 700 nm in the ultraviolet-visible spectrophotometer, and the contents of methemoglobin in blood samples of three healthy volunteers were calculated, after being effected by the synthesized compounds.
Experimental materials: Nicotinamide adenine dinucleotide phosphate (NADPH) reduction system: glucose-6-disodium phosphate, nicotinamide adenine dinucleoside phosphate and glucose-6-phosphate dehydrogenase (purchased from Shanghai yuanye Bio-Technology Co., Ltd) were added to 1 mL of phosphate buffer solution (PBS, pH 7.4), and the mixture was shaked in a shaker type water bath at 37° C. for 10 min, and then cooled to 0° C. Mixed human hepatocytes fraction S9 was purchased from Xenotech (20 mg S9 protein/1 mL suspension medium). Compounds were prepared to stock solution at a concentration of 50 mM, which was stored at −20° C. for use. Dapsone was used as positive control experimental reagent, which was purchased from Sigma Aldrich. 1% w/v triton X-100 was self-prepared. Blood samples were collected using Vacutainer tubes containing EDTA anticoagulants (BD, Franklin Lakes, USA), which were sampled from three healthy volunteers and used immediately after sampling.
Preparation of incubation system for blood samples and drugs: 250 μL of incubation system was consist of 220 μL of whole blood, 25 μL of S9 (final concentration: 2 mg S9 protein/mL incubation solution), 2.5 μL of NADPH form system (final concentration: 10 mM G-6-P, 1 mM NADP, 7.5 Units/mL) and 2.5 μL of stock solution of a compound (final concentration 500 μM). […] of incubation system was placed in an Eppendorf tube and incubated for 5 hours at 37° C. in water bath.
Determination of the content of methemoglobin: 60 μL of an incubated sample was taken and lysed with 3.0 mL of 1% Triton X-100. The content of methemoglobin (MetHb) was measured by an ultraviolet-visible spectrophotometer, with the Triton X-100 solution used as blank control. A sample was placed in a cuvette, 1 minute later, the spectrums of the sample in the wavelength range from 500 nm to 700 nm were recorded. The sample was added with 2 mg of potassium ferricyanide, and was allowed to stay stationary for 2 minutes for completely oxidization of ferrous iron in the sample, and standard spectrum of methemoglobin with saturated potassium ferricyanide. The percentage of methemoglobin formation (MetHb %) was obtained by the ratio of absorbance at 630 nm. MetHb %=(A′−AB′)/AM′, wherein, A′ was the total absorbance of the sample at 630 nm, AB′ was the base absorbance of the reduced blood in the sample at 630 nm, and AM′ was the absorbance of oxidized blood with saturated potassium ferricyanide at 630 nm.

[2] = test system: HCT-116 colorectal cancer cell line; experiment: CCK-8 proliferation inhibition; format: cell-based; settings: Homo sapiens, HCT-116, 72 h, read-out: HCT116 inhibition rate/%
Outline: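 Cells seeded at 2000 cells/well, cultured overnight at 37 °C, 5% CO2, then exposed to compound (DMSO; control 1‰ DMSO) for 72 h in McCoy's 5A with 10% newborn bovine serum. Viability read with 1:10 diluted CCK-8.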

CCCC[C@H](CN(O)C=O)C(=O)N1CC2(CC2)C[C@H]1C(=O)Nc1cccc(-c2cccnc2)c1 [Example 7, (S)-5-((R)-2-((N-hydroxyformamido)methyl)hexylcarbonyl)-N-(3-(pyridin-3-yl)phenyl)-5-5-azaspiro[2.4]heptane-6-amide] was tested. Which “MetHb % (n = 3)” value ([1]; 500 μM compound, whole blood + S9 + NADPH, 5 hours at 37° C.) did it give?
The value was 2.24 ± 0.05%.

And the “probability of methemoglobin formation in blood compared with the control drugs LBM415 and GSK1322322” value ([1]; toxicity test in vitro, in words)?
The value was “lower probability of methemoglobin formation in blood”.

And the inhibition at 30 µM [2]?
Its inhibition at 30 µM is 23%.
